These results are taken from US9873693B2 (Sunesis Pharmaceuticals, Inc., priority 2006, dated 2018).

Read-outs that look alike come from different tables or passages of the source.

The test deals with phospho-akt (Thr308). As to the kind of experiment: phospho-akt (Thr308) MSD ELISA in PC-3 cells. The test is classed as cell-based. The note with it: Homo sapiens, PC-3, 2 h. On the procedure: PC-3 cells were harvested by trypsin and counted. Cells were plated in coated 96-well flat bottom plates (plate 15,000 cells/well in 100 ul growth media (10% FBS, 1× pen-strep) an place in an incubator overnight.
Subject inhibitors were stocked at 50 mM, then diluted to 30 mM (4.8 μl cpd plus […] DMSO) in 100% DMSO. Three-fold dilutions were performed from 30 mM stock. (4 μl into 8 ul 100% DMSO). Aliquots of 1.0 μl of inhibitor solution were transferred into SF Medium (using deep well block).
Control wells were prepared as follows. For DMSO high controls, 1.0 μl of 100% DMSO was added into 1.0 ml SF.
MSD plates were blocked for 1 hour by adding 150 μl of Blocking Solution (3% BSA) to each well. The MSD plates were washed 4× with TBST, and 50 μl lysates were transferred to MSD plate and place on plate shaker shake at 4 degrees O/N, light shaking (speed 3.5). The plate was washed 4× with TBST.
25 μl of Ab detection solution was added to each well. The plate was sealed and incubated 1 hr RT, light shaking (speed 3.5). The plate was washed 4 times with TBST. 150 μl of Read Buffer was added (5 mls 4×MSD Read Buffer+15 mls water). Finally the plate was read immediately on the MSD plate reader.

Setting [1] is: PC-3 cells, 2 hours, no serum, read-out: Inhibition of P308 Akt in cells using MSD EC50.
The mark [2] stands for this setting: PC-3 cells, 2 hours, no serum, read-out: Reduction of Cellular Levels of Akt p308 By MSD ELISA (EC50 μM).
The mark [3] stands for this setting: read-out: Inhibition of P308 Akt in cells using MSD EC50.

Consider `O=C(N[C@@H](COc1ccc2[nH]c(=O)[nH]c2c1)C1CC1)c1cccn(Cc2cc(F)c(F)c(F)c2)c1=O` [Cpd 168], for which, under setting [1], the EC50 (commonly the concentration at which the effect is half-maximal) was 1 to 5 µM.

With `O=C(NCc1cccc(-c2c[nH]c3ncccc23)c1)c1cccn(Cc2ccc(C(F)(F)F)cc2)c1=O` [Cpd 145], the EC50 under setting [1] was above 5 µM and the EC50 under setting [2] was 1 to 5 µM.

For `O=C(NCc1ccc(O)c(-c2c[nH]c3ncccc23)c1)c1cccn(Cc2ccc(F)c(F)c2)c1=O` [Cpd 82], the EC50 under setting [1] lay within 1 to 5 µM.

Consider `O=C(Nc1ccnc2ccc(-c3c[nH]c4ncccc34)cc12)c1cccn(Cc2ccc(F)c(F)c2)c1=O` [Cpd 66], for which the 50% effective concentration (EC50) under setting [1] was below 1 µM.

For `CN(C)C(=O)COc1cc(CNC(=O)c2cccn(Cc3ccc(F)c(F)c3)c2=O)cc(-c2c[nH]c3ncccc23)c1` [Cpd 63], the 50% effective concentration (EC50) under setting [1] is below 1 µM.

As to `O=C(NCc1ccc(OCCN2CCOCC2)c(-c2c[nH]c3ncccc23)c1)c1cccn(Cc2ccc(F)c(F)c2)c1=O`, the EC50 under setting [1] lay within 1 to 5 µM.

For the compound `O=C(NC/C=C/c1ccc2[nH]c(=O)[nH]c2c1)c1cccn(Cc2cc(F)c(F)c(F)c2)c1=O` [Cpd 170], the EC50 under setting [1] is 1 to 5 µM.

Take `CC(C)(C)OC(=O)N1CCC(Oc2cc(CNC(=O)c3cccn(Cc4ccc(F)c(F)c4)c3=O)cc(-c3c[nH]c4ncccc34)c2)CC1` [Cpd 88]: the EC50 under setting [1] was above 5 µM.

Turning to `O=C(Nc1n[nH]c2ccc(-c3c[nH]c4ncccc34)cc12)c1cccn(Cc2ccc(F)c(F)c2)c1=O` [Cpd 42], the EC50 under setting [2] was in the range of 1 to 5 µM.

In the case of `CS(=O)(=O)N1CCC(Oc2cc(CNC(=O)c3cccn(Cc4ccc(F)c(F)c4)c3=O)cc(-c3c[nH]c4ncccc34)c2)CC1` [Cpd 94], the EC50 under setting [1] is below 1 µM.

As for `O=C(NCc1noc(-c2c[nH]c3ncccc23)n1)c1cccn(Cc2cc(F)c(F)c(F)c2)c1=O` [Cpd 138], the EC50 under setting [1] lay in the range of 1 to 5 µM and the EC50 under setting [2] lay in the range of 1 to 5 µM.

Turning to `O=C(NCc1cccc(-c2c[nH]c(C(=O)N3CCOCC3)c2)c1)c1cccn(Cc2ccc(F)c(F)c2)c1=O` [Cpd 76], the EC50 under setting [1] was in the range of 1 to 5 µM.

As for `CC(c1ccc(C(F)(F)F)cc1)n1cccc(C(=O)NCc2noc(-c3c[nH]c4ncccc34)n2)c1=O` (stereo not shown) [Cpd 140], the EC50 by setting is: under setting [1], 1 to 5 µM; under setting [2], 1 to 5 µM.

Regarding `Nc1ncnc2ccc(-c3ccc(CNC(=O)c4cccn(Cc5ccc(F)c(F)c5)c4=O)s3)cc12` [Cpd 70], under setting [1], the EC50 is below 1 µM.

As to `O=C(NCc1cc(OCC(O)CO)cc(-c2c[nH]c3ncccc23)c1)c1cccn(Cc2ccc(F)c(F)c2)c1=O` (stereo not shown) [Cpd 68], under setting [1], the half-maximal effective concentration (EC50) was in the range of 1 to 5 µM.

`CC(C)Oc1cc(CNC(=O)c2cccn(Cc3cc(F)c(F)c(F)c3)c2=O)cc(-c2c[nH]c3ncccc23)c1` [Cpd 65]: under setting [1], the concentration giving a half-maximal response (EC50) is below 1 µM.

For `O=C(NC(COc1ccc2[nH]c(=O)[nH]c2c1)c1cccnc1)c1cccn(Cc2cc(F)c(F)c(F)c2)c1=O` (stereo not shown) [Cpd 163], the EC50 under setting [3] lay in the range of 1 to 5 µM.

On to `C=C[C@H](COc1ccc2[nH]c(=O)[nH]c2c1)NC(=O)c1cccn(Cc2cc(F)c(F)c(F)c2)c1=O` [Cpd 159], for which the EC50 under setting [1] was in the range of 1 to 5 µM.

In the case of `Nc1ncnc2ccc(-c3cccc(CNC(=O)c4cccn(Cc5ccc(F)c(F)c5)c4=O)c3)cc12` [Cpd 64], the EC50 under setting [1] is above 5 µM.

Take `O=C(N[C@@H](COc1ccc2[nH]c(=O)[nH]c2c1)c1ccccc1Cl)c1cccn(Cc2cc(F)c(F)c(F)c2)c1=O` [Cpd 151]: the EC50 under setting [1] is below 1 µM.

As for `O=C(NCc1cc(OC2CCCC2)cc(-c2c[nH]c3ncccc23)c1)c1cccn(Cc2ccc(F)c(F)c2)c1=O` [Cpd 85], the EC50 under setting [1] lay within 1 to 5 µM.

With `O=C(NCc1cccc(-c2c[nH]c3ncc(C(=O)N4CCOCC4)cc23)c1)c1cccn(Cc2ccc(F)c(F)c2)c1=O` [Cpd 69], under setting [1], the EC50 was below 1 µM.

In the case of `CCn1nc(NC(=O)c2cccn(Cc3ccc(F)c(F)c3)c2=O)c2cc(-c3c[nH]c4ncccc34)ccc21` [Cpd 95], under setting [1], the EC50 is 1 to 5 µM.

Regarding `NC(=O)COc1cc(CNC(=O)c2cccn(Cc3ccc(F)c(F)c3)c2=O)cc(-c2c[nH]c3ncccc23)c1` [Cpd 62], under setting [1], the half-maximal effective concentration (EC50) was below 1 µM.

`CN1CCC(Oc2cc(CNC(=O)c3cccn(Cc4ccc(F)c(F)c4)c3=O)cc(-c3c[nH]c4ncccc34)c2)CC1` [Cpd 86]: the EC50 under setting [3] fell in the range of 1 to 5 µM.
